From patent publication US9586951B2 (FUJIFILM Corporation, priority 2013, dated 2017)

Target: T1, ATM (Homo sapiens, UniProt Q13315)
T1 construct: detecting phosphorylation of Chk2 in a human non-small cell lung cancer cell line NCI-H460 (ATCC company); host or cells: NCI-H460 human non-small cell lung cancer cells
Test: ATM inhibition test (phosphorylation of Chk2 generated by ionizing radiation, AlphaScreen SureFire)
Format: cell-based
Settings: phosphorylated Chk2 in NCI-H460 cells, ionizing radiation 8Gy, 1 hour after test compound treatment; read-out: ATM inhibitory activity
Outline: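 Phosphorylated Chk2 read by AlphaScreen SureFire in human non-small cell lung cancer NCI-H460 cells, 1 hour after 8Gy ionizing radiation at 37° C. Compound added 1 hour before irradiation. Percent inhibition normalised between irradiated and non-irradiated drug-untreated signals.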

T1 sequence (Q13315 whole entry): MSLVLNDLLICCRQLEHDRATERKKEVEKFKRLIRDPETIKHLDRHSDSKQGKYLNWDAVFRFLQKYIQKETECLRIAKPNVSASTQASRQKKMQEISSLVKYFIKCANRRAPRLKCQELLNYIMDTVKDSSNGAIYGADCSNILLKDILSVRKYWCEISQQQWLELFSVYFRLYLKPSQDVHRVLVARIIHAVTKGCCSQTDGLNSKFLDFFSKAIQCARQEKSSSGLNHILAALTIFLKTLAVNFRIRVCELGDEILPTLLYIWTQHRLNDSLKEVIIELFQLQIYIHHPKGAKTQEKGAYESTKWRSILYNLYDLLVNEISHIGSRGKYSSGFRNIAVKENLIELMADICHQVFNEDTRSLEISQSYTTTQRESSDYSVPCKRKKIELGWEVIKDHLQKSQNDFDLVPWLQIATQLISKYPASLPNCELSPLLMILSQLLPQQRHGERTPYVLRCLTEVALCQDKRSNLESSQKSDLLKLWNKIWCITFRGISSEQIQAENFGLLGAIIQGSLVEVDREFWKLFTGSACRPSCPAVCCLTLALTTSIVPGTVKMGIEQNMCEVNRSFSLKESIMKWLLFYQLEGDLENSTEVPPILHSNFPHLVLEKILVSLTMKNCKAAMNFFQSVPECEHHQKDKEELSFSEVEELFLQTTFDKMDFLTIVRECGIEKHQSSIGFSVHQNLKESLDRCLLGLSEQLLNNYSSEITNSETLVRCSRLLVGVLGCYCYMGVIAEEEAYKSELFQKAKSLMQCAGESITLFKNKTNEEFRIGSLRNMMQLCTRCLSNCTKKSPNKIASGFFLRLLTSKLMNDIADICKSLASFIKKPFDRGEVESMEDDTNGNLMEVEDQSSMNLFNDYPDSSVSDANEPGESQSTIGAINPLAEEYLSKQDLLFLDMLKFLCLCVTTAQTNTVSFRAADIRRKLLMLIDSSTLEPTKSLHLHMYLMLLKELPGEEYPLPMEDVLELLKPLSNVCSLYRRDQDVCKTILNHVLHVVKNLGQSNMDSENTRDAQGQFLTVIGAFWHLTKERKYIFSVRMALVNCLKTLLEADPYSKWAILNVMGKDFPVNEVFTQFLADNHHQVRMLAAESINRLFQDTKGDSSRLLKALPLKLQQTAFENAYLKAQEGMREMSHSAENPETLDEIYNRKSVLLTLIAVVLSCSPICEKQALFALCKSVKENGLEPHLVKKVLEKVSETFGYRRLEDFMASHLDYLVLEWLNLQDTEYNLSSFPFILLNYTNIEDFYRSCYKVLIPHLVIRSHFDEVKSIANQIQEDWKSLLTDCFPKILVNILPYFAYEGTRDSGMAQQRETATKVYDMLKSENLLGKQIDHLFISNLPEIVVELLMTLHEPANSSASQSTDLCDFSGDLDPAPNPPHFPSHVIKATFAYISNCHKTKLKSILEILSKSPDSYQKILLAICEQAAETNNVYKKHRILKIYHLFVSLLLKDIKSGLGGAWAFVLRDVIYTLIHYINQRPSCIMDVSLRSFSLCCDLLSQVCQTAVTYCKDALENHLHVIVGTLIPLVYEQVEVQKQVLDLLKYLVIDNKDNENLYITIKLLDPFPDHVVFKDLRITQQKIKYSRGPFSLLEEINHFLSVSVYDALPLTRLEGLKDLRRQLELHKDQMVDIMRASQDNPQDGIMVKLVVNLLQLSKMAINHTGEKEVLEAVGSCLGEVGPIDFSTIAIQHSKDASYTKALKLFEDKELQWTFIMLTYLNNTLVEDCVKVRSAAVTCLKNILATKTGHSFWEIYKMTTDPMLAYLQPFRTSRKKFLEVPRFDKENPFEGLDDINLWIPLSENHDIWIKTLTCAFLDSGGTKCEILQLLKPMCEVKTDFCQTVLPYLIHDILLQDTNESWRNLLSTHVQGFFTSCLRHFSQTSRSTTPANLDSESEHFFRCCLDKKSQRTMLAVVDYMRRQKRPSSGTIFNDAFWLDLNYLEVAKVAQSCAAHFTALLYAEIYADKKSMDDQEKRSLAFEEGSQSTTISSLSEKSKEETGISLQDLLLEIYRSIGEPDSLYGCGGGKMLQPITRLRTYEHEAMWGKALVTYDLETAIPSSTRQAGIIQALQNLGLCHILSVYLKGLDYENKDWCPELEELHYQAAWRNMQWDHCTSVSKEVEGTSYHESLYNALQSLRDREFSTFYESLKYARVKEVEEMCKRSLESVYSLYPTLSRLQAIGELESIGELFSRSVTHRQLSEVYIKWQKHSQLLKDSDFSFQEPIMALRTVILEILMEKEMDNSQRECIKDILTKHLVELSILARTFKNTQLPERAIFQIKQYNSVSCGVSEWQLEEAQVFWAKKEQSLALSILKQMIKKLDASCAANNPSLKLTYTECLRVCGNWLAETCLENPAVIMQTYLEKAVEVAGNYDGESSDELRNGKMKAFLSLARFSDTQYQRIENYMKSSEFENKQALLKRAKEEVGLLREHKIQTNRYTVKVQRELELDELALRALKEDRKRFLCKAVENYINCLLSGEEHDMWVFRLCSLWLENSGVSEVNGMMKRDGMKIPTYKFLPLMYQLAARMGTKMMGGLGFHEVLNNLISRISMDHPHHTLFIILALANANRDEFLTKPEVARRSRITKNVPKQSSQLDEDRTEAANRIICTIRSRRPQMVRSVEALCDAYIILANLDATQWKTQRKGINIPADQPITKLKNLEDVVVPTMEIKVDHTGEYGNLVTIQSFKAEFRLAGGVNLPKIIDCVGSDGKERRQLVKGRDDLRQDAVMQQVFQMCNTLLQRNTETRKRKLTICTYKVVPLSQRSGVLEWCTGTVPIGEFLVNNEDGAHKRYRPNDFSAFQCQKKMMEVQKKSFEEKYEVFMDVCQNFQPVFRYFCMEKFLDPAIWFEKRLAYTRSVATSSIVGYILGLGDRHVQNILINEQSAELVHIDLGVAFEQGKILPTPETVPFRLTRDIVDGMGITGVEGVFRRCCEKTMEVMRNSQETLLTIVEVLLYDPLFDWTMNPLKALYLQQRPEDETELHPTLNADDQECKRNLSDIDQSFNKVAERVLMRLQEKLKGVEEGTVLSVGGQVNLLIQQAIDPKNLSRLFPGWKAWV

Compound | IC50 [nM]
O=c1cc(N2CCOCC2)cc(-c2cccc3c2Oc2ccc(NCc4ccc(N5CCOCC5)nc4)cc2C3)[nH]1 [Example 2-2-6, 4-Morpholino-6-(7-(((6-morpholinopyridin-3-yl)methyl)amino)-9H-xanthen-4-yl)pyridin-2(1H)-one] | 100 to 500
O=c1cc(N2CCOCC2)cc(-c2cccc3c2Oc2ccc(NC4CCN(CCc5ccccn5)CC4)cc2C3)[nH]1 [Example 2-30-3, 4-Morpholino-6-(7-((1-(2-(pyridin-2-yl)ethyl)piperidin-4-yl)amino)-9H-xanthen-4-yl)pyridin-2(1H)-one] | 500 to 2000
O=c1cc(N2CCOCC2)cc(-c2cccc3c2Oc2ccc(NCc4cncnc4)cc2C3)[nH]1 [Example 2-3-2, 4-Morpholino-6-(7-((pyrimidin-5-ylmethyl)amino)-9H-xanthen-4-yl) pyridin-2(1H)-one] | 100 to 500
CN(C)c1ccc(CN2CCC(Nc3ccc4c(c3)Cc3cccc(-c5cc(N6CCOCC6)cc(=O)[nH]5)c3O4)CC2)cn1 [Example 2-28-9, 6-(7-((1-((6-(Dimethylamino)pyridin-3-yl)methyl)piperidin-4-yl)amino)-9H-xanthen-4-yl)-4-morpholino pyridin-2(1H)-one] | 100 to 500
O=c1cc(N2CCOCC2)cc(-c2cccc3c2Sc2ccc(NCc4ncccn4)cc2C3)[nH]1 [Example 3-8-6, 4-Morpholino-6-(7-((pyrimidin-2-ylmethyl)amino)-9H-thioxanthen-4-yl) pyridin-2(1H)-one] | 100 to 500
O=c1cc(N2CCOCC2)cc(-c2cccc3c2Oc2ccc(NCc4ccnc(Cl)c4F)cc2C3)[nH]1 [Example 2-2-19, 6-(7-(((2-Chloro-3-fluoropyridin-4-yl)methyl)amino)-9H-xanthen-4-yl)-4-morpholino pyridin-2(1H)-one] | 100 to 500
CN[C@@H](Cc1ccccc1)C(=O)Nc1ccc2c(c1)Sc1cccc(-c3cc(N4CCOCC4)cc(=O)[nH]3)c1S2 [Example 1-4, (S)-2-(methylamino)-N-(6-(4-morpholino-6-oxo-1,6-dihydropyridin-2-yl)thianthren-2-yl)-3-phenyl propanamide] | 100 to 500
COCCNCc1cccc(C(C)Nc2ccc3c(c2)Sc2cccc(-c4cc(N5CCOCC5)cc(=O)[nH]4)c2S3)n1 (stereo not drawn) [Example 1-20-9, 6-(7-((1-(6-(((2-Methoxyethyl)amino)methyl)pyridin-2-yl)ethyl)amino)thianthren-1-yl)-4-morpholino pyridin-2 (1H)-one] | 100 to 500
CC(CN1CCN(Cc2ccncc2)CC1)Nc1ccc2c(c1)Sc1cccc(-c3cc(N4CCOCC4)cc(=O)[nH]3)c1S2 (stereo not drawn) [Example 1-15-4, 4-Morpholino-6-(7-((1-(4-(pyridin-4-ylmethyl)piperazin-1-yl)propan-2-yl)amino)thianthren-1-yl)pyridin-2(1H)-one] | 100 to 500
CC(Nc1ccc2c(c1)Sc1cccc(-c3cc(N4CCOCC4)cc(=O)[nH]3)c1S2)C(=O)N1CCCC1 (stereo not drawn) [Example 1-18-4] | 100 to 500
Cc1ccc(C(Nc2ccc3c(c2)Sc2cccc(-c4cc(N5CCOCC5)cc(=O)[nH]4)c2S3)C2CN(C)C2)nc1 (stereo not drawn) [Example 1-22-8, 6-(7-(((1-Methylazetidin-3-yl)(5-methylpyridin-2-yl)methyl)amino)thianthren-1-yl)-4-morpholino pyridin-2 (1H)-one] | 100 to 500
Nc1ccc2c(c1)Cc1cccc(-c3cc(N4CCOCC4)cc(=O)[nH]3)c1S2 [Example 3-1, 6-(7-amino-9H-thioxanthen-4-yl)-4-morpholinopyridin-2(1H)-one] | 500 to 2000
CN(C)c1ncc(CN2CCC(Nc3ccc4c(c3)Cc3cccc(-c5cc(N6CCOCC6)cc(=O)[nH]5)c3O4)CC2)cn1 [Example 2-28-13, 6-(7-((1-((2-(Dimethylamino)pyrimidin-5-yl)methyl)piperidin-4-yl)amino)-9H-xanthen-4-yl)-4-morpholino pyridin-2(1H)-one] | 100 to 500
CCC(CC)(Nc1ccc2c(c1)Sc1cccc(-c3cc(N4CCOCC4)cc(=O)[nH]3)c1S2)c1ccc(C)cn1 [Example 1-50-6, 6-(7-((3-(5-Methylpyridin-2-yl)pentan-3-yl)amino)thianthren-1-yl)-4-morpholino pyridin-2(1H)-one] | 500 to 2000
O=c1cc(N2CCOCC2)cc(-c2ccc(F)c3c2Oc2ccc(NCc4cccc(Cl)n4)cc2C3)[nH]1 [Example 2-44-1, 6-(7-(((6-Chloropyridin-2-yl)methyl)amino)-1-fluoro-9H-xanthen-4-yl)-4-morpholinopyridin-2(1H)-one] | 100 to 500
O=c1cc(N2CCOCC2)cc(-c2cccc3c2Oc2ccc(NCc4ccc(-n5cccn5)nc4)cc2C3)[nH]1 [Example 2-2-31, 6-(7-(((6-(1H-Pyrazol-1-yl)pyridin-3-yl)methyl)amino)-9H-xanthen-4-yl)-4-morpholino pyridin-2(1H)-one] | 100 to 500
Cc1ccc(C(C)Nc2ccc3c(c2)Sc2cccc(-c4cc(N5CCOCC5)cc(=O)[nH]4)c2S3)nc1 (single isomer, unassigned) [Example 1-12-143-2, 6-(7-((1-(5-methylpyridin-2-yl)ethyl)amino)thianthren-1-yl)-4-morpholinopyridin-2(1H)-one] | 100 to 500

Compound | IC50 [nM]
O=c1cc(N2CCOCC2)cc(-c2cccc3c2Sc2ccc(NCc4ccncc4)cc2C3)[nH]1 [Example 3-8-2, 4-Morpholino-6-(7-((pyridin-4-ylmethyl)amino)-9H-thioxanthen-4-yl)pyridin-2(1H)-one] | 500 to 2000
CC(C)(CN1CCOCC1)Nc1ccc2c(c1)Sc1cccc(-c3cc(N4CCOCC4)cc(=O)[nH]3)c1S2 [Example 1-46-2, 6-(7-((2-methyl-1-morpholinopropan-2-yl)amino)thianthren-1-yl)-4-morpholinopyridin-2(1H)-one] | 100 to 500
Cc1ccc(C(Nc2ccc3c(c2)Sc2cccc(-c4cc(N5CCOCC5)cc(=O)[nH]4)c2S3)[C@H]2CCCN2C)nc1 (single isomer, unassigned) [Example 1-56-4] | 100 to 500
O=C1CCCN1c1cncc(CNc2ccc3c(c2)Cc2cccc(-c4cc(N5CCOCC5)cc(=O)[nH]4)c2O3)c1 [Example 2-2-67, 4-Morpholino-6-(7-(((5-(2-oxopyrrolidin-1-yl)pyridin-3-yl)methyl)amino)-9H-xanthen-4-yl)pyridin-2(1H)-one] | 100 to 500
COc1cncc(C(CO)Nc2ccc3c(c2)Sc2cccc(-c4cc(N5CCOCC5)cc(=O)[nH]4)c2S3)n1 (stereo not drawn) [Example 1-12-79, 6-(7-((2-Hydroxy-1-(6-methoxypyrazin-2-yl)ethyl)amino)thianthren-1-yl)-4-morpholino pyridin-2(1H)-one] | 100 to 500
COc1cncc(CNc2ccc3c(c2)Cc2cccc(-c4cc(N5CCOCC5)cc(=O)[nH]4)c2N3C)c1 [Example 7, 6-(7-(((5-Methoxypyridin-3-yl)methyl)amino)-10-methyl-9,10-dihydroacridin-4-yl)-4-morpholinopyridin-2(1H)-one] | 500 to 2000
O=c1cc(N2CCOCC2)cc(-c2cccc3c2Sc2ccc(NC4CCN(C5CCCCC5)C4)cc2S3)[nH]1 (stereo not drawn) [Example 1-24-9, 6-(7-((1-Cyclohexylpyrrolidin-3-yl)amino)thianthren-1-yl)-4-morpholinopyridin-2(1H)-one] | 100 to 500
COCCCN1CCC(Nc2ccc3c(c2)Cc2cccc(-c4cc(N5CCOCC5)cc(=O)[nH]4)c2O3)CC1 [Example 2-30-15, 6-(7-((1-(3-Methoxypropyl)piperidin-4-yl)amino)-9H-xanthen-4-yl)-4-morpholino pyridin-2 (1H)-one] | 500 to 2000
CN(C)c1nccc(CN2CCC(Nc3ccc4c(c3)Cc3cccc(-c5cc(N6CCOCC6)cc(=O)[nH]5)c3O4)CC2)n1 [Example 2-28-16, 6-(7-((1-((2-(Dimethylamino)pyrimidin-4-yl)methyl)piperidin-4-yl)amino)-9H-xanthen-4-yl)-4-morpholino pyridin-2(1H)-one] | 100 to 500
COc1cc(C(C)Nc2ccc3c(c2)Cc2cccc(-c4cc(N5CCOCC5)cc(=O)[nH]4)c2O3)ccn1 (stereo not drawn) [Example 2-14-26, 6-(7-((1-(2-Methoxypyridin-4-yl)ethyl)amino)-9H-xanthen-4-yl)-4-morpholino pyridin-2(1H)-one] | < 100
CC(CN1CCN(c2ccncc2)CC1)Nc1ccc2c(c1)Sc1cccc(-c3cc(N4CCOCC4)cc(=O)[nH]3)c1S2 (stereo not drawn) [Example 1-13-16, 4-Morpholino-6-(7-((1-(4-(pyridin-4-yl)piperazin-1-yl)propan-2-yl)amino)thianthren-1-yl)pyridin-2 (1H)-one] | 100 to 500
Cc1cnc(C(CCN2CCN(C)CC2)Nc2ccc3c(c2)Sc2cccc(-c4cc(N5CCOCC5)cc(=O)[nH]4)c2S3)cn1 (single isomer, unassigned) [Example 10-3-2, 6-(7-((3-(4-Methylpiperazin-1-yl)-1-(5-methylpyrazin-2-yl)propyl)amino)thianthren-1-yl)-4-rnorpholino pyridin-2 (1H)-one] | < 100
COc1ccccc1CCN1CCC(Nc2ccc3c(c2)Cc2cccc(-c4cc(N5CCOCC5)cc(=O)[nH]4)c2O3)CC1 [Example 2-30-10, 6-(7-((1-(2-Methoxyphenethyl)piperidin-4-yl)amino)-9H-xanthen-4-yl)-4-morpholino pyridin-2(1H)-one] | 500 to 2000
Cc1ccnc(C(C)Nc2ccc3c(c2)Sc2cccc(-c4cc(N5CCOCC5)cc(=O)[nH]4)c2S3)n1 (single isomer, unassigned) [Example 1-12-144-2, 6-(7-((1-(4-methylpyrimidin-2-yl)ethyl)amino)thianthren-1-yl)-4-morpholinopyridin-2(1H)-one] | 100 to 500
O=c1cc(N2CCOCC2)cc(-c2cccc3c2Sc2ccc(NCCN4CC(F)(F)C4)cc2S3)[nH]1 [Example 1-10-3, 6-(7-((2-(3,3-Difluoroazetidin-1-yl)ethyl)amino)thianthren-1-yl)-4-morpholinopyridin-2(1H)-one] | 100 to 500
Nc1ccc2c(c1)Cc1c(F)ccc(-c3cc(N4CCOCC4)cc(=O)[nH]3)c1O2 [Example 2-43, 6-(7-Amino-1-fluoro-9H-xanthen-4-yl)-4-morpholinopyridin-2(1H)-one] | 500 to 2000
